Laboratory results published in ChEMBL document CHEMBL6096692, “Discovery of 2(1H)-Quinoxalinone Derivatives as Potent and Selective MAT2A Inhibitors for the Treatment of MTAP-Deficient Cancers” (J Med Chem, 2025).
pIC50: −log10 of the molar value. Where “and” joins values, the source holds several entries; their conditions need not be identical. Equal entries are not always repeated. Calls of active or inactive are those of the source. The rule behind the calls is not given here.

Legend:
[1] = molecular target: S-adenosylmethionine synthase isoform type-2 (Homo sapiens, UniProt P31153); test: Inhibition of MAT2A (unknown origin) using L-methionine and ATP as substrate preincubated with compound for 10 mins followed by substrate addition and measured after 60 mins by kinase-glo max reagent based microplate reader analysis
Sequence of S-adenosylmethionine synthase isoform type-2 (P31153 whole entry, canonical isoform): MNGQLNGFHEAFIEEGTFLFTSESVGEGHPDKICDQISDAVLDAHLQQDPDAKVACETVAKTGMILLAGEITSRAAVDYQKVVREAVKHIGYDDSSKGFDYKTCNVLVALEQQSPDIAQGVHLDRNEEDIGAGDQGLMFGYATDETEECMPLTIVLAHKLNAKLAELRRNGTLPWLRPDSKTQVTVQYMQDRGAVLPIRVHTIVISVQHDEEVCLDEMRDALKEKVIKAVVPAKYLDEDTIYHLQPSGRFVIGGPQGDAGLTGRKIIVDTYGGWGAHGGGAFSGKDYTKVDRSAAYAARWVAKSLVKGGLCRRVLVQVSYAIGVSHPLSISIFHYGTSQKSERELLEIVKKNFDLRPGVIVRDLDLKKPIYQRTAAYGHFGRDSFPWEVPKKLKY

B16-F10 [2] = test: Antiproliferative activity against mouse B16-F10 cells harboring wild type MTAP assessed as inhibition of cell viability measured for 96 hrs by SRB assay; format: functional, cell-based; conditions: B16-F10, 96 h
B16-F10 [3] = test: Antiproliferative activity against MTAP knockout mouse B16-F10 cells assessed as inhibition of cell viability measured for 96 hrs by SRB assay; format: functional, cell-based; conditions: B16-F10, 96 h
[4] = Selectivity index, ratio of IC50 for antiproliferative activity against mouse B16-F10 cells harboring wild type MTAP assessed as inhibition of cell viability to IC50 for antiproliferative activity against MTAP knockout mouse B16-F10 cells assessed as inhibition of cell viability; format: functional
SF-126 = test: Induction of DNA damage in human SF-126 cells harboring wild type MTAP assessed as increase in gammaH2AX level at 0.1 to 10 uM measured for 96 hrs by Western blot analysis; format: functional, cell-based; conditions: dose 0.1-10 µM
MIA PaCa-2 = test: Antitumor activity against MTAP null human MIA PaCa-2 cells xenografted in mouse assessed as tumor growth inhibition at 30 to 60 mg/kg, po measured after 28 days; format: functional, organism-based; conditions: dose 30-60 mg/kg, time 28.0 day

O=c1c(-c2ccc3c(c2)CCO3)nc2cnc(NCC(F)(F)F)nc2n1-c1ccc(OC(F)F)cc1
pIC50 [1]: 7.05
pIC50 (B16-F10 [2]): < 4.70
pIC50 (B16-F10 [3]): 5.61
Ratio IC50 [4]: >8.1

O=c1c(-c2ccc3nncn3c2)nc2ccc(C3CC3)cc2n1-c1ccc(OC(F)F)cc1
pIC50 [1]: 6.99
pIC50 (B16-F10 [2]): 4.83
pIC50 (B16-F10 [3]): 5.95
Ratio IC50 [4]: 13.2

O=c1c(-c2ccc3ncoc3c2)nc2ccc(C3CC3)cc2n1-c1ccc(OC(F)F)cc1
pIC50 [1]: 7.01

COc1ccc(-c2nc3cnc(NCC(F)(F)F)nc3n(-c3ccc(OC(F)F)nc3)c2=O)cc1
pIC50 [1]: < 6.00

COc1ccc(-c2nc3cnc(NCC(F)(F)F)nc3n(-c3cccc(OC(F)F)c3)c2=O)cc1
pIC50 [1]: < 6.00

Cn1cc2cc(-c3nc4ccc(C5CC5)cc4n(-c4ccc(OC(F)F)cc4)c3=O)ccc2n1
pIC50 [1]: 7.10
pIC50 (B16-F10 [2]): < 4.70
pIC50 (B16-F10 [3]): 5.36
Ratio IC50 [4]: >4.6

Cn1cnc2ccc(-c3nc4cnc(NCC5CC5)nc4n(-c4ccc(OC(F)F)cc4)c3=O)cc21
pIC50 [1]: 6.21
pIC50 (B16-F10 [2]): 5.14
pIC50 (B16-F10 [3]): 5.53
Ratio IC50 [4]: 2.4

O=c1c(-c2ccc3ncccc3c2)nc2cnc(NCC(F)(F)F)nc2n1-c1ccc(OC(F)F)cc1
pIC50 [1]: 6.36

CCOc1ccc2nc(-c3ccc4ncn(C)c4c3)c(=O)n(-c3ccc(OC(F)F)cc3)c2c1
pIC50 [1]: 6.98
pIC50 (B16-F10 [2]): < 4.70
pIC50 (B16-F10 [3]): 5.51
Ratio IC50 [4]: >6.5

COc1ccc(-n2cc3cnc(NCC(F)(F)F)nc3c(-c3ccc(Br)cc3)c2=O)cc1
pIC50 [1]: 7.25
pIC50 (B16-F10 [2]): 5.67
pIC50 (B16-F10 [3]): 6.48
Ratio IC50 [4]: 6.5
Activity (SF-126): inactive
Activity (MIA PaCa-2): Active

CC(C)n1cnc2ccc(-c3nc4ccc(C5CC5)cc4n(-c4ccc(OC(F)F)cc4)c3=O)cc21
pIC50 [1]: 6.86
pIC50 (B16-F10 [2]): 5.48
pIC50 (B16-F10 [3]): 6.43
Ratio IC50 [4]: 9

Cn1nnc2ccc(-c3nc4ccc(C5CC5)cc4n(-c4ccc(OC(F)F)cc4)c3=O)cc21
pIC50 [1]: 7.54
pIC50 (B16-F10 [2]): 5.04
pIC50 (B16-F10 [3]): 5.82
Ratio IC50 [4]: 3.8

COc1ccc(-c2nc3cnc(NCC(F)(F)F)nc3n(-c3ccc(OCC(F)F)cc3)c2=O)cc1
pIC50 [1]: < 6.00

Cn1cnc2ccc(-c3nc4cnc(NCC(F)(F)F)nc4n(-c4ccc(OC(F)F)cc4)c3=O)cc21
pIC50 [1]: 7.20
pIC50 (B16-F10 [2]): < 4.70
pIC50 (B16-F10 [3]): 6.51
Ratio IC50 [4]: >64.5

O=c1c(-c2ccc3ncnn3c2)nc2ccc(C3CC3)cc2n1-c1ccc(OC(F)F)cc1
pIC50 [1]: 6.94
pIC50 (B16-F10 [2]): < 4.70
pIC50 (B16-F10 [3]): 4.84
Ratio IC50 [4]: >1.4

O=c1c(-c2ccc3ncn(C4CC4)c3c2)nc2cnc(NCC(F)(F)F)nc2n1-c1ccc(OC(F)F)cc1
pIC50 [1]: 7.08
pIC50 (B16-F10 [2]): 4.78
pIC50 (B16-F10 [3]): 6.40
Ratio IC50 [4]: 41.4

CC1=Nc2ccc(-c3nc4ccc(C5CC5)cc4n(-c4ccc(OC(F)F)cc4)c3=O)cc2C1(C)C
pIC50 [1]: 7.05
pIC50 (B16-F10 [2]): 5.28
pIC50 (B16-F10 [3]): 6.12
Ratio IC50 [4]: 6.9

COc1ccc(-c2nc3cnc(NCC(F)(F)F)nc3n(-c3ccc(Br)cc3)c2=O)cc1
pIC50 [1]: 6.82
pIC50 (B16-F10 [2]): < 4.70
pIC50 (B16-F10 [3]): 5.18
Ratio IC50 [4]: >3.1

Cc1nc2ccc(-c3nc4cnc(NCC(F)(F)F)nc4n(-c4ccc(OC(F)F)cc4)c3=O)cc2n1C
pIC50 [1]: 7.19
pIC50 (B16-F10 [2]): 4.74
pIC50 (B16-F10 [3]): 6.28
Ratio IC50 [4]: 34.2

O=c1c(-c2ccn3nccc3c2)nc2ccc(C3CC3)cc2n1-c1ccc(OC(F)F)cc1
pIC50 [1]: 7.09
pIC50 (B16-F10 [2]): 4.86
pIC50 (B16-F10 [3]): 5.87
Ratio IC50 [4]: 10.4

O=c1c(-c2ccc3nccn3c2)nc2ccc(C3CC3)cc2n1-c1ccc(OC(F)F)cc1
pIC50 [1]: 7.19
pIC50 (B16-F10 [2]): < 4.70
pIC50 (B16-F10 [3]): 6.11
Ratio IC50 [4]: >25.6

COc1ccc2nc(-c3ccc4ncn(C)c4c3)c(=O)n(-c3ccc(OC(F)F)cc3)c2c1
pIC50 [1]: 7.05
pIC50 (B16-F10 [2]): < 4.70
pIC50 (B16-F10 [3]): 5.61
Ratio IC50 [4]: >8.1

COc1ccc(-c2nc3cnc(NCC(F)(F)F)nc3n(-c3ccc(C(F)(F)F)cc3)c2=O)cc1
pIC50 [1]: < 6.00

O=c1c(-c2ccc3c(c2)CCCO3)nc2cnc(NCC(F)(F)F)nc2n1-c1ccc(OC(F)F)cc1
pIC50 [1]: 7.42
pIC50 (B16-F10 [2]): < 4.70
pIC50 (B16-F10 [3]): 5.78
Ratio IC50 [4]: >12

Cn1cnc2ccc(-c3nc4cnc(NC5CC5)nc4n(-c4ccc(OC(F)F)cc4)c3=O)cc21
pIC50 [1]: 7.31

Cn1cnc2ccc(-c3nc4ccc(C5CC5)nc4n(-c4ccc(OC(F)F)cc4)c3=O)cc21
pIC50 [1]: 7.64
pIC50 (B16-F10 [2]): 6.10
pIC50 (B16-F10 [3]): 6.68
Ratio IC50 [4]: 3.8

COc1ccc(-c2nc3cnc(NCC(F)(F)F)nc3n(-c3ccc(OC(F)F)cc3)c2=O)cc1
pIC50 [1]: 7.00
pIC50 (B16-F10 [2]): < 4.70
pIC50 (B16-F10 [3]): 5.48
Ratio IC50 [4]: >6.1

O=c1c(-c2ccc3ncn(C4CCCC4)c3c2)nc2cnc(NCC(F)(F)F)nc2n1-c1ccc(OC(F)F)cc1
pIC50 [1]: 6.96 and 7.64
pIC50 (B16-F10 [2]): 5.01
pIC50 (B16-F10 [3]): 6.52
Ratio IC50 [4]: 32.5

COc1ccc(-c2nc3cnc(NCC(F)(F)F)nc3n(-c3ccc(Cl)cc3)c2=O)cc1
pIC50 [1]: 6.86
pIC50 (B16-F10 [2]): < 4.70
pIC50 (B16-F10 [3]): 5.03
Ratio IC50 [4]: >2.2

Cn1cnc2ccc(-c3nc4ccc(C5CCC5)cc4n(-c4ccc(OC(F)F)cc4)c3=O)cc21
pIC50 [1]: 6.64

Cn1cnc2ccc(-c3nc4cnc(C5CC5)cc4n(-c4ccc(OC(F)F)cc4)c3=O)cc21
pIC50 [1]: 6.21

Cn1cc2cc(-c3nc4cnc(NCC(F)(F)F)nc4n(-c4ccc(OC(F)F)cc4)c3=O)ccc2n1
pIC50 [1]: 7.41
pIC50 (B16-F10 [2]): < 4.70
pIC50 (B16-F10 [3]): 5.90
Ratio IC50 [4]: >16
